In patent US7041701B2, “Triterpenoid derivatives” (Univerzita Palackeho V Olomouci, priority 2000, dated 2006):

Experiments:
HT-29 human colon cancer = test: MTT cytotoxicity assay, HT-29; assay type: cell-based; settings: 72 hours, read-out: TCS50
Source text: (§1) One of the parameters used as the basis for colorimetric assays is the metabolic activity of viable cells. For example, a microtiter assay which uses the tetrazolium salt MTT is now widely used to quantitate cell proliferation and cytotoxicity [Hajdúch M, Mihál V, Minarík J, Fáber E, Safárová M, Weigl E, Antálek P.: Cytotechnology, 1996, 19, 243–245]. For instance, this assay is used in drug screening programs and in chemosensitivity testing. Because tetrazolium salts are cleaved only by metabolically active cells, these assays exclusively detect viable cells. In the case of the MTT assay, yellow soluble tetrazolium salt is reduced to a coloured water-insoluble formazan salt. After it is solubilized, the formazan formed can easily and rapidly be quantified in a conventional ELISA plate reader at 570 nm (maximum absorbancy). The quantity of reduced formazan corresponds to the number of vital cells in the culture. […]
(§2) The cell suspensions that were prepared and diluted according to the particular cell type and the expected target cell density (2,500–30,000 cells per well based on cell growth characteristics) were added by pipette (80 μl) into 96/well microtiter plates. […] Usually, test compounds were evaluated at six 4-fold dilutions. […] The tumour cell survival (TCS) was calculated using the following equitation: TCS=(ODdrug exposed well/mean ODcontrol wells)×100%. […]

[1] = test system: CEM-VCR 3/D5 human T-lymphoblastic leukemia, vincristin resistant; test: MTT cytotoxicity assay, CEM-VCR 3/D5; assay type: cell-based; settings: 72 hours, read-out: TCS50
Source text: as §1, §2

Q: `CC(=O)OC[C@@]1(C(=O)O)CC[C@]2(C)[C@H](CC[C@@H]3[C@@]4(C)CC[C@H](OC(C)=O)C(C)(C)[C@@H]4CC[C@]32C)C1=O` [I.3, 3β,28-diacetoxy-18-oxo-19,20,21,29,30-pentanorlupan-22-oic acid] was tested. Which IC50 (HT-29 human colon cancer) did it give?
A: 1600 nM

Q: What about the IC50 [1] of the same compound?
A: 2900 nM
